Patent publication US10807986B2, “Fused pyrimidine compound or salt thereof” (TAIHO PHARMACEUTICAL CO., LTD., priority 2016, dated 2020)

Assay: Evaluation of stability in liver microsome
Conditions: mouse liver microsome 0.25 mg/mL, test compound 1 μM, 37° C., 30 minutes

For `COCc1ccc(NC(=O)c2c(-c3ccc(F)nc3)n(C3(C)CC3)c3ncnc(N)c23)cc1` [Example 190, 4-amino-6-(6-fluoropyridin-3-yl)-N-(4-(methoxymethyl)phenyl)-7-(1-methylcyclopropyl)-7H-pyrrolo[2,3-d]pyrimidine-5-carboxamide], the “Remaining (%)” value was 58%.
For `COCc1ccc(NC(=O)c2c(C#Cc3cnc[nH]3)n(C3(C)CC3)c3ncnc(N)c23)cc1` [Example 191, 6-((1H-imidazol-5-yl)ethynyl)-4-amino-N-(4-(methoxymethyl)phenyl)-7-(1-methylcyclopropyl)-7H-pyrrolo[2,3-d]pyrimidine-5-carboxamide], the “Remaining (%)” value was 53%.
For `COCc1ccc(NC(=O)c2c(C#Cc3ccc(OC)nc3)n(C3(C)CC3)c3ncnc(N)c23)cc1` [Example 192, 4-amino-N-(4-(methoxymethyl)phenyl)-6-((6-methoxypyridin-3-yl)ethynyl)-7-(1-methylcyclopropyl)-7H-pyrrolo[2,3-d]pyrimidine-5-carboxamide], the “Remaining (%)” value was 79%.
In the case of `COCc1ccc(NC(=O)c2c(C#Cc3cncs3)n(C3(C)CC3)c3ncnc(N)c23)cc1` [Example 193, 4-amino-N-[4-(methoxymethyl)phenyl]-7-(1-methylcyclopropyl)-6-(thiazol-5-ylethynyl)-7H-pyrrolo[2,3-d]pyrimidine-5-carboxamide], the “Remaining (%)” value is reported as 51%.
For `COCc1ccc(NC(=O)c2c(-c3cncnc3)n(C3(C)CC3)c3ncnc(N)c23)cc1` [Example 194, 4-amino-N-(4-(methoxymethyl)phenyl)-7-(1-methylcyclopropyl)-6-(pyrimidin-5-yl)-7H-pyrrolo[2,3-d]pyrimidine-5-carboxamide], the “Remaining (%)” value was 67%.
For `COCc1ccc(NC(=O)c2c(C#Cc3cncc(C#N)c3)n(C3(C)CC3)c3ncnc(N)c23)cc1` [Example 195, 4-amino-6-((5-cyanopyridin-3-yl)ethynyl)-N-(4-(methoxymethyl)phenyl)-7-(1-methylcyclopropyl)-7H-pyrrolo[2,3-d]pyrimidine-5-carboxamide], the “Remaining (%)” value was 70%.
For `COCc1ccc(NC(=O)c2c(C#Cc3cncnc3)n(C3(C)CC3)c3ncnc(N)c23)cc1` [Example 196, 4-amino-N-(4-(methoxymethyl)phenyl)-7-(1-methylcyclopropyl)-6-(pyrimidin-5-ylethynyl)-7H-pyrrolo[2,3-d]pyrimidine-5-carboxamide], the “Remaining (%)” value was 53%.
In the case of `COCCN(C)CC#Cc1c(C(=O)Nc2ccc(COC)cc2)c2c(N)ncnc2n1C1(C)CC1` [Example 197, 4-amino-6-(3-((2-methoxyethyl)(methyl)amino)prop-1-yn-1-yl)-N-(4-(methoxymethyl)phenyl)-7-(1-methylcyclopropyl)-7H-pyrrolo[2,3-d]pyrimidine-5-carboxamide], the “Remaining (%)” value is reported as 52%.
In the case of `COCc1ccc(NC(=O)c2c(C#CCN(C)C)n(C3(C)CC3)c3ncnc(N)c23)cc1` [Example 198, 4-amino-6-(3-(dimethylamino)prop-1-yn-1-yl)-N-(4-(methoxymethyl)phenyl)-7-(1-methylcyclopropyl)-7H-pyrrolo[2,3-d]pyrimidine-5-carboxamide], the “Remaining (%)” value is reported as 57%.
For `COCc1ccc(NC(=O)c2c(C#CCC3CCCCC3)n(C3(C)CC3)c3ncnc(N)c23)cc1` [Example 199, 4-amino-6-(3-cyclohexylprop-1-yn-1-yl)-N-(4-(methoxymethyl)phenyl)-7-(1-methylcyclopropyl)-7H-pyrrolo[2,3-d]pyrimidine-5-carboxamide], the “Remaining (%)” value was 80%.
For `COCc1ccc(NC(=O)c2c(C3=CCOCC3)n(C3(C)CC3)c3ncnc(N)c23)cc1` [Example 203, 4-amino-6-(3,6-dihydro-2H-pyran-4-yl)-N-(4-(methoxymethyl)phenyl)-7-(1-methylcyclopropyl)-7H-pyrrolo[2,3-d]pyrimidine-5-carboxamide], the “Remaining (%)” value was 68%.
With `COCc1ccc(NC(=O)c2c(C(C)O)n(C3(C)CC3)c3ncnc(N)c23)cc1` (stereo not drawn) [Example 204, 4-amino-6-(1-hydroxyethyl)-N-(4-(methoxymethyl)phenyl)-7-(1-methylcyclopropyl)-7H-pyrrolo[2,3-d]pyrimidine-5-carboxamide] the “Remaining (%)” value was 83%.
